Numbers after ± are expanded uncertainties.

For series [1] the following is noted: 100 kPa, Liquid.
The nature of series [2]: xn = mol fraction of the nth substance listed. The settings on record: 278.15 K; 100 kPa; Liquid; x2 = 0.

For orientation: mass density means the mass of a sample divided by its volume. As to `CCNCC` [diethylamine], the mass density turned out to be 719.94 ± 1.2 kg/m3 in series [1] (278.15 K); 709.52 ± 1.2 kg/m3 in series [1] (288.15 K); 704.59 ± 1.2 kg/m3 in series [1] (293.15 K); 698.97 ± 1.2 kg/m3 in series [1] (298.15 K); 688.29 ± 1.3 kg/m3 in series [1] (308.15 K).
In the case of `O` [water] + CCNCC, in series [2], the mass density worked out at 999.964 ± 0.25 kg/m3.

These data come from the NIST ThermoML archive (doi:10.1016/j.jct.2004.07.008).
